A short description of data set [1]: The drug is tested on Bacteroides finegoldii strain: DSM17565 for biotransformation. The drug concentrations were measured before and after a 12-h incubation by liquid-chromatography-coupled mass spectrometry (LC–MS). The settings on record: 2 µM.
A short description of data set [2]: The drug is tested on Clostridium sporogenes strain: ATCC15579 for biotransformation. The drug concentrations were measured before and after a 12-h incubation by liquid-chromatography-coupled mass spectrometry (LC–MS). The settings on record: 2 µM.
For data set [3] the following is noted: akkermansia muciniphila, 12 h, 2 µM.
Description: The drug is tested on Akkermansia muciniphila strain: ATCC BAA-835 for biotransformation. The drug concentrations were measured before and after a 12-h incubation by liquid-chromatography-coupled mass spectrometry (LC–MS)
Data set [4] in a line: The drug is tested on Collinsella intestinalis strain: DSM13280 for biotransformation. The drug concentrations were measured before and after a 12-h incubation by liquid-chromatography-coupled mass spectrometry (LC–MS). The following applies: 2 µM.
A short description of data set [5]: The drug is tested on Eubacterium ventriosum strain: ATCC27560 for biotransformation. The drug concentrations were measured before and after a 12-h incubation by liquid-chromatography-coupled mass spectrometry (LC–MS). The following applies: 2 µM. The format is ADME. Also on record: dose 2 uM, timepoint 0 vs 12 hours.
Data set [6] can be described thus: The drug is tested on Coprococcus comes strain: ATCC27758 for biotransformation. The drug concentrations were measured before and after a 12-h incubation by liquid-chromatography-coupled mass spectrometry (LC–MS). The format is ADME. The arrangement: dose 2 uM, timepoint 0 vs 12 hours. The settings on record: 2 µM.
The nature of data set [7]: The drug is tested on Alistipes indistinctus strain: DSM22520 for biotransformation. The drug concentrations were measured before and after a 12-h incubation by liquid-chromatography-coupled mass spectrometry (LC–MS). The following applies: 2 µM.
The nature of data set [8]: The drug is tested on Bacteroides pectinophilus strain: ATCC43243 for biotransformation. The drug concentrations were measured before and after a 12-h incubation by liquid-chromatography-coupled mass spectrometry (LC–MS). The settings on record: 2 µM.
Data set [9] can be described thus: The drug is tested on Blautia luti strain: DSM14534 for biotransformation. The drug concentrations were measured before and after a 12-h incubation by liquid-chromatography-coupled mass spectrometry (LC–MS). In kind it is ADME. The arrangement: dose 2 uM, timepoint 0 vs 12 hours. The following applies: 2 µM.
Data set [10] in a line: The drug is tested on Subdoligranulum variabile strain: DSM15176 for biotransformation. The drug concentrations were measured before and after a 12-h incubation by liquid-chromatography-coupled mass spectrometry (LC–MS). The settings on record: 2 µM.
Data set [11] is described as follows: The drug is tested on Clostridium ramosum strain: DSM1402 for biotransformation. The drug concentrations were measured before and after a 12-h incubation by liquid-chromatography-coupled mass spectrometry (LC–MS). The settings on record: thomasclavelia ramosa, 2 µM.
Data set [12] in a line: The drug is tested on Bacteroides xylanisolvens strain: DSM18836 for biotransformation. The drug concentrations were measured before and after a 12-h incubation by liquid-chromatography-coupled mass spectrometry (LC–MS). The settings on record: 2 µM.
Data set [13] in a line: The drug is tested on Providencia stuartii strain: ATCC25827 for biotransformation. The drug concentrations were measured before and after a 12-h incubation by liquid-chromatography-coupled mass spectrometry (LC–MS). The following applies: 2 µM.
The conditions of data set [14]: enterocloster bolteae, 12 h, 2 µM.
Description: The drug is tested on Clostridium bolteae strain: ATCCBAA-613 for biotransformation. The drug concentrations were measured before and after a 12-h incubation by liquid-chromatography-coupled mass spectrometry (LC–MS)
The conditions of data set [15]: segatella copri, 12 h, 2 µM.
Description: The drug is tested on Prevotella copri strain: DSM18205 for biotransformation. The drug concentrations were measured before and after a 12-h incubation by liquid-chromatography-coupled mass spectrometry (LC–MS)
For data set [16] the following is noted: bacteroides thetaiotaomicron, 12 h, 2 µM.
Description: The drug is tested on Bacteroides thetaiotaomicron strain: 7330 for biotransformation. The drug concentrations were measured before and after a 12-h incubation by liquid-chromatography-coupled mass spectrometry (LC–MS)
The conditions of data set [17]: bacteroides fragilis, 12 h, 2 µM.
Description: The drug is tested on Bacteroides fragilis strain: 3397 (T10) for biotransformation. The drug concentrations were measured before and after a 12-h incubation by liquid-chromatography-coupled mass spectrometry (LC–MS)
The conditions of data set [18]: bacteroides thetaiotaomicron, 12 h, 2 µM. This is another data set of the same source.
Description: The drug is tested on Bacteroides thetaiotaomicron strain: 3731 for biotransformation. The drug concentrations were measured before and after a 12-h incubation by liquid-chromatography-coupled mass spectrometry (LC–MS)
The nature of data set [19]: The drug is tested on Blautia hansenii strain: DSM20583 for biotransformation. The drug concentrations were measured before and after a 12-h incubation by liquid-chromatography-coupled mass spectrometry (LC–MS). The following applies: 2 µM.
A short description of data set [20]: The drug is tested on Bacteroides fragilis strain: ATCC43859 for biotransformation. The drug concentrations were measured before and after a 12-h incubation by liquid-chromatography-coupled mass spectrometry (LC–MS). The settings on record: 2 µM.

For the compound `CCN(CC)CCNC(C(=O)OCCC(C)C)c1ccccc1.Cl.Cl` (stereo not drawn), the “Bacterial Biotransformation” value in data set [1], in data set [2], in data set [3], in [4], in data set [5] and in [6] was “Compound NOT metabolized” throughout. For the same compound, the “Bacterial Biotransformation” value in data set [7] was “Compound NOT metabolized”; in data set [8] it was “Compound NOT metabolized”; in data set [9], “Compound NOT metabolized”; in data set [10], “Compound metabolized”; in data set [11] it was “Compound NOT metabolized”; in [12] it was “Compound NOT metabolized”. The “Bacterial Biotransformation” value in data set [13], in data set [14] and in data set [15] was “Compound NOT metabolized” each time.

With `CCCCCCOC(=O)/N=C(/N)c1ccc(NCc2nc3cc(C(=O)N(CCC(=O)OCC)c4ccccn4)ccc3n2C)cc1.CS(=O)(=O)O` [DABIGATRAN ETEXILATE MESYLATE], the “Bacterial Biotransformation” value in data set [1], in [2], in data set [3], in data set [4], in data set [5] and in data set [6] was “Compound NOT metabolized” in each case. Further, the “Bacterial Biotransformation” value in data set [7], in data set [8], in [9], in data set [10], in data set [11] and in data set [16] was “Compound NOT metabolized” each time. In addition, the “Bacterial Biotransformation” value in [13], in [14], in [15] and in data set [17] was “Compound NOT metabolized” each time.

`C[C@]12CCC(=O)C=C1[C@@H]1C[C@@H]1[C@H]1[C@@H]3[C@@H]4C[C@@H]4[C@@]4(CCC(=O)O4)[C@@]3(C)CC[C@@H]12` [DROSPIRENONE]: the “Bacterial Biotransformation” value in data set [1] is “Compound NOT metabolized”; in data set [2], “Compound metabolized”; in data set [3], “Compound NOT metabolized”; in data set [4], “Compound NOT metabolized”; in [5] it was “Compound NOT metabolized”; in data set [8], “Compound NOT metabolized”. Moreover, the “Bacterial Biotransformation” value in data set [9] was “Compound NOT metabolized”; in data set [10], “Compound NOT metabolized”; in data set [16], “Compound NOT metabolized”; in [18], “Compound NOT metabolized”; in [12] it was “Compound metabolized”; in [14], “Compound NOT metabolized”. Further, the “Bacterial Biotransformation” value in data set [15] and in data set [17] was “Compound NOT metabolized” in each case.

Regarding `CS(=O)(=O)O.OC(CCN1CCCCC1)(c1ccccc1)c1ccccc1` [PRIDINOL METHANESULFONATE], the “Bacterial Biotransformation” value in [1], in data set [2], in [3], in data set [4], in [5] and in data set [6] was “Compound NOT metabolized” throughout. Further, the “Bacterial Biotransformation” value in data set [8], in [9], in [10], in [11], in data set [16] and in [18] was “Compound NOT metabolized” in each case. Also, the “Bacterial Biotransformation” value in data set [12], in data set [13], in [14], in data set [15] and in data set [17] was “Compound NOT metabolized” in each case.

As to `CNNCc1ccc(C(=O)NC(C)C)cc1` [PROCARBAZINE], the “Bacterial Biotransformation” value in data set [1], in data set [2], in [3], in data set [4], in data set [5] and in [6] was “Compound NOT metabolized” throughout. Besides, the “Bacterial Biotransformation” value in data set [7], in data set [8], in data set [9], in data set [11], in [16] and in data set [19] was “Compound NOT metabolized” each time. Moreover, the “Bacterial Biotransformation” value in data set [18] is given as “Compound NOT metabolized”; in data set [12], “Compound NOT metabolized”; in data set [20], “Compound metabolized”; in data set [13], “Compound NOT metabolized”; in data set [14], “Compound NOT metabolized”; in [15], “Compound NOT metabolized”. Moreover, the “Bacterial Biotransformation” value in [17] is recorded as “Compound NOT metabolized”.

With `O=C1N=C([O-])NC1(c1ccccc1)c1ccccc1.[Na+]` [PHENYTOIN SODIUM], the “Bacterial Biotransformation” value was “Compound NOT metabolized” in data set [1]; “Compound metabolized” in data set [2]; “Compound NOT metabolized” in data set [6]; “Compound NOT metabolized” in [7]; “Compound NOT metabolized” in [8]; “Compound NOT metabolized” in data set [10]. Besides, the “Bacterial Biotransformation” value in data set [11], in [18], in [12], in data set [13], in data set [14] and in data set [15] was “Compound NOT metabolized” each time.

Turning to `Nc1c2c(nc3ccccc13)CCCC2` [TACRINE], the “Bacterial Biotransformation” value in data set [1], in [2], in data set [4], in [5], in data set [6] and in data set [7] was “Compound NOT metabolized” each time. The “Bacterial Biotransformation” value in [8], in data set [9], in data set [10], in [11], in data set [18] and in data set [12] was “Compound NOT metabolized” each time. Besides, the “Bacterial Biotransformation” value in [13], in [14] and in [15] was “Compound NOT metabolized” each time.
